Experiments:
[1] = molecular target: Nucleosome-remodeling factor subunit BPTF (Homo sapiens, UniProt Q12830); assay: Selectivity interaction (Human bromodomain panel (DSF assay)) EUB0000233b BPTF
[2] = molecular target: T1, Dual specificity protein kinase TTK (Homo sapiens) (UniProt P33981); assay: Selectivity interaction (KinomeScan (DiscoverX)) EUB0000666a TTK; settings: at 10 µM
T1 sequence (whole entry): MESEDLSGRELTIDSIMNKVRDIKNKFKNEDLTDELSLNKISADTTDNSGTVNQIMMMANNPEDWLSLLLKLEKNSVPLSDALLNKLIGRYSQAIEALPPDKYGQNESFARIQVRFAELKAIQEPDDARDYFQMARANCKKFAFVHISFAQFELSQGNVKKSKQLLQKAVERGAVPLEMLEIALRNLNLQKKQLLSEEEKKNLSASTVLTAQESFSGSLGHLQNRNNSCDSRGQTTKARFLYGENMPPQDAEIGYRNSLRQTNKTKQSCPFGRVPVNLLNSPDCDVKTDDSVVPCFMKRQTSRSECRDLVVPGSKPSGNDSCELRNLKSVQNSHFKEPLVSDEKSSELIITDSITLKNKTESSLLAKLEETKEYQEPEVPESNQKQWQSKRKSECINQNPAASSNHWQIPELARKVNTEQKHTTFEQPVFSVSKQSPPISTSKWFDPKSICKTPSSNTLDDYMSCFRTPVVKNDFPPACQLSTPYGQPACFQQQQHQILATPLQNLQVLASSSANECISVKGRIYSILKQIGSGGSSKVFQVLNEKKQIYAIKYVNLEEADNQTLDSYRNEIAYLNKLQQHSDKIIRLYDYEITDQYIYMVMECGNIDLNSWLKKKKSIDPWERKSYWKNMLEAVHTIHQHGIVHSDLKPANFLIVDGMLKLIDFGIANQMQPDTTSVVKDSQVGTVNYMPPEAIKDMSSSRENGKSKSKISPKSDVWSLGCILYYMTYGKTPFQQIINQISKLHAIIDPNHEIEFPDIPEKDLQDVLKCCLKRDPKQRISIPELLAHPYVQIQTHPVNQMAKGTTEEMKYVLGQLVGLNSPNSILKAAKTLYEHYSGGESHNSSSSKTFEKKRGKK

[3] = molecular target: Serine/threonine-protein kinase pim-2 (Homo sapiens, UniProt Q9P1W9); assay: Selectivity interaction (Kinase panel (literature)) EUB0001199aCl PIM2; settings: at 1 µM
[4] = molecular target: Ribosomal protein S6 kinase alpha-2 (Homo sapiens) (UniProt Q15349); assay: Selectivity interaction (Upstate Kinase Profiler service (Millipore)) EUB0000056c RPS6KA2; settings: at 1 µM
[5] = molecular target: Dual specificity protein kinase CLK3 (Homo sapiens, UniProt P49761)
[6] = molecular target: Insulin receptor-related protein (Homo sapiens) (UniProt P14616); assay: Selectivity interaction (Kinase screening (Nanosyn)) EUB0000604a INSRR
[7] = molecular target: T2, MAP/microtubule affinity-regulating kinase 4 (Homo sapiens) (UniProt Q96L34); assay: Selectivity interaction (KinomeScan (DiscoverX)) EUB0000655a MARK4; settings: at 10 µM
T2 sequence (whole entry): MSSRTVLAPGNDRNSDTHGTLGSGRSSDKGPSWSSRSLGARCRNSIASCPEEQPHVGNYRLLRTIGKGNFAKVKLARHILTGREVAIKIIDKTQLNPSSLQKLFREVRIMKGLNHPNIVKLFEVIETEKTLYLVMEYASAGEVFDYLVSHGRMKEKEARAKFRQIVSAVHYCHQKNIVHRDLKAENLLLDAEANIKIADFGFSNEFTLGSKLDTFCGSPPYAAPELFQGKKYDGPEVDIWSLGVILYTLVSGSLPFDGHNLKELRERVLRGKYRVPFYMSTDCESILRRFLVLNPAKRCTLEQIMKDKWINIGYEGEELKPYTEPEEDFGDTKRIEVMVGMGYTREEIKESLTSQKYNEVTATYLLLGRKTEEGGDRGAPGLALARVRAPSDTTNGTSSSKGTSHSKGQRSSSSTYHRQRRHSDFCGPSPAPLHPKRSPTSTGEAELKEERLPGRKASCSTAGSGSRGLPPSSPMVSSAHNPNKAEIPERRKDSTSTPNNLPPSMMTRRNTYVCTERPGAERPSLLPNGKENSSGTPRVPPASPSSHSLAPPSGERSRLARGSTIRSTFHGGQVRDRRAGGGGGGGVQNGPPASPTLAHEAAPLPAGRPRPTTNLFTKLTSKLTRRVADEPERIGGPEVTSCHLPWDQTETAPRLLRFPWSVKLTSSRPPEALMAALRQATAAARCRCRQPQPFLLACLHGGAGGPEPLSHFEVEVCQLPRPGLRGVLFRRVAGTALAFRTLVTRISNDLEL

[8] = molecular target: Ephrin type-A receptor 5 (Homo sapiens) (UniProt P54756); assay: Selectivity interaction (KinomeScan (DiscoverX)) EUB0000655a EPHA5; settings: at 10 µM
Chain of Ephrin type-A receptor 5 (Homo sapiens) (P54756 whole entry): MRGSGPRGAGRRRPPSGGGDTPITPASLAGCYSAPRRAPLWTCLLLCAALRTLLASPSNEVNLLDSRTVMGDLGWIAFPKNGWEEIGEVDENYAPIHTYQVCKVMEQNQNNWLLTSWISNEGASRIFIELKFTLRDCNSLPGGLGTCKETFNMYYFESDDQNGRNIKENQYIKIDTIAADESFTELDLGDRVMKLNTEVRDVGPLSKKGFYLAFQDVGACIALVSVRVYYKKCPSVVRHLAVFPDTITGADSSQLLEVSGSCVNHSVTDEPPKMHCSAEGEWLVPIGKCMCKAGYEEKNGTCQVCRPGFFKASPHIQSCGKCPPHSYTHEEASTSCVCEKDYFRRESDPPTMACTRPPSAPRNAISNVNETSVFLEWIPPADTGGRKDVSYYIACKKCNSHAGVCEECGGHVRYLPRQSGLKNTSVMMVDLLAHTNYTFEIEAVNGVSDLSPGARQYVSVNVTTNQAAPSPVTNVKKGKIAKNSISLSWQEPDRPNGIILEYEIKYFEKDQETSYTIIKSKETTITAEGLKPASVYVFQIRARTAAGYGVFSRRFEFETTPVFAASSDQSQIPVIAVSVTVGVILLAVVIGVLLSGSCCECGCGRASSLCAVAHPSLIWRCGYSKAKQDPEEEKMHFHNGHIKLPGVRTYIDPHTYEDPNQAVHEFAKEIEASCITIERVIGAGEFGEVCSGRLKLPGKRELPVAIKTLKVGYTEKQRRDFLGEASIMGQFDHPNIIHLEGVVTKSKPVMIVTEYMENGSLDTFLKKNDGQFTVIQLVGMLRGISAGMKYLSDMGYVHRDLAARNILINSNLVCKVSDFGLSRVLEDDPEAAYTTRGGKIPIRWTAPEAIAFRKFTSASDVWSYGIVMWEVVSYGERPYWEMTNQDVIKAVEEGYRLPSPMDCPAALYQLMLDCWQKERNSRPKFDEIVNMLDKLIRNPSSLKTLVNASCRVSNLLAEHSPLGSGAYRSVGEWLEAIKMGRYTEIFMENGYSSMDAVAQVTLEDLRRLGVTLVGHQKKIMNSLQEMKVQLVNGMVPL

Chain of Serine/threonine-protein kinase pim-2 (Q9P1W9 whole entry, looked up): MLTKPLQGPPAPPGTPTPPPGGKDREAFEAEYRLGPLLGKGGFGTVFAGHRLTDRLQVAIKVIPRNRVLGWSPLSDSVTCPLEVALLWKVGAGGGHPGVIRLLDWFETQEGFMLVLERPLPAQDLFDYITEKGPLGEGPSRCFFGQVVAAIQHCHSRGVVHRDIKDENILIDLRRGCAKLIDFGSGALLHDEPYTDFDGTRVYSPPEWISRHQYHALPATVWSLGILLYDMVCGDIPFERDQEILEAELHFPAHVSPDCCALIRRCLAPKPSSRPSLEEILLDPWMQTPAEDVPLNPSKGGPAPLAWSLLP
Chain of Dual specificity protein kinase CLK3 (P49761 whole entry, looked up): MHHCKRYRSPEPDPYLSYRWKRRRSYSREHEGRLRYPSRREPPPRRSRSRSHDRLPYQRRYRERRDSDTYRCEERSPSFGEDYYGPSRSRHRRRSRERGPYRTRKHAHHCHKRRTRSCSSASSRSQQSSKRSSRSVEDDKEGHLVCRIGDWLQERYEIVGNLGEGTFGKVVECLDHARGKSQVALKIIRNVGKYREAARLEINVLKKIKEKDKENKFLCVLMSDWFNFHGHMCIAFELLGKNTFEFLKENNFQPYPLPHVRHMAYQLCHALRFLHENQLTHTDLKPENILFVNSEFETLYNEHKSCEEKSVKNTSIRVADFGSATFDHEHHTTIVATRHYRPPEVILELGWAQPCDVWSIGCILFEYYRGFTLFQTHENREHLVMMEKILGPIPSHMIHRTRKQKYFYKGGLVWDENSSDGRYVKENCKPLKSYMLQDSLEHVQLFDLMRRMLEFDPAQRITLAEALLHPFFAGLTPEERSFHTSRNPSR
Chain of Insulin receptor-related protein (Homo sapiens) (P14616 27-742 limits assumed): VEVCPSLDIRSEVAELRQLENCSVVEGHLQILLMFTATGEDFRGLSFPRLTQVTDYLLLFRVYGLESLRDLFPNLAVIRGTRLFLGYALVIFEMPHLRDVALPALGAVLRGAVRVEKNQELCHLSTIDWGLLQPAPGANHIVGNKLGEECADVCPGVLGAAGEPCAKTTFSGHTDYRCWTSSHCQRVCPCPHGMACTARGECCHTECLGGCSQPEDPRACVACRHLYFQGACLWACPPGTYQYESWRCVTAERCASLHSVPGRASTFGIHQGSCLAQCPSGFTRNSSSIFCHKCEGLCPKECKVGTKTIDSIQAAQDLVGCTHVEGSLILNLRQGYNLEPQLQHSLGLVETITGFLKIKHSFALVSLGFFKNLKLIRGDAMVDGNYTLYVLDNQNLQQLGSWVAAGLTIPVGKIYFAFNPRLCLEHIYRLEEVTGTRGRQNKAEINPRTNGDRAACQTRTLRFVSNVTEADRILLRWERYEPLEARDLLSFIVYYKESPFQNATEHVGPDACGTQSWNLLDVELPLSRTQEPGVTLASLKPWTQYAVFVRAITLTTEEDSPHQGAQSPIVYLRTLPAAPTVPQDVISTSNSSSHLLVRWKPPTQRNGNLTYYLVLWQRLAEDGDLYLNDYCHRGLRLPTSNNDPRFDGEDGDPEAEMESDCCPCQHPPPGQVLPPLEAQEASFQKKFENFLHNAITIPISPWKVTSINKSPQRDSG
Chain of Insulin receptor-related protein (Homo sapiens) (P14616 747-1297 limits assumed): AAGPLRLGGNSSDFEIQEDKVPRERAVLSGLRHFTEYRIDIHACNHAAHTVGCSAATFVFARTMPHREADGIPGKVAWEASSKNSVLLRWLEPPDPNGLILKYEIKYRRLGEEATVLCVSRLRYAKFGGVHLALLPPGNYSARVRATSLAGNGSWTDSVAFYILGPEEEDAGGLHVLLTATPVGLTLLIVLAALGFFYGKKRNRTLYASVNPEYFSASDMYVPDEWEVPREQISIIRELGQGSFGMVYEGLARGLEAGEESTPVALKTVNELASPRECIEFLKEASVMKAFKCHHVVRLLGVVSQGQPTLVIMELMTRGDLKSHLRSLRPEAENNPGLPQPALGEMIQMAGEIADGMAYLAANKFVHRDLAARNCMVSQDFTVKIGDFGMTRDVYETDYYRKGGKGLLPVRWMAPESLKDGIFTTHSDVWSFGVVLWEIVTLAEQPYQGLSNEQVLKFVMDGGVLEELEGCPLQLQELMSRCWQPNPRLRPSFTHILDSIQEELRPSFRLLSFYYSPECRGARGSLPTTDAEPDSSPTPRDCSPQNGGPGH
Chain of Ribosomal protein S6 kinase alpha-2 (Homo sapiens) (Q15349 whole entry): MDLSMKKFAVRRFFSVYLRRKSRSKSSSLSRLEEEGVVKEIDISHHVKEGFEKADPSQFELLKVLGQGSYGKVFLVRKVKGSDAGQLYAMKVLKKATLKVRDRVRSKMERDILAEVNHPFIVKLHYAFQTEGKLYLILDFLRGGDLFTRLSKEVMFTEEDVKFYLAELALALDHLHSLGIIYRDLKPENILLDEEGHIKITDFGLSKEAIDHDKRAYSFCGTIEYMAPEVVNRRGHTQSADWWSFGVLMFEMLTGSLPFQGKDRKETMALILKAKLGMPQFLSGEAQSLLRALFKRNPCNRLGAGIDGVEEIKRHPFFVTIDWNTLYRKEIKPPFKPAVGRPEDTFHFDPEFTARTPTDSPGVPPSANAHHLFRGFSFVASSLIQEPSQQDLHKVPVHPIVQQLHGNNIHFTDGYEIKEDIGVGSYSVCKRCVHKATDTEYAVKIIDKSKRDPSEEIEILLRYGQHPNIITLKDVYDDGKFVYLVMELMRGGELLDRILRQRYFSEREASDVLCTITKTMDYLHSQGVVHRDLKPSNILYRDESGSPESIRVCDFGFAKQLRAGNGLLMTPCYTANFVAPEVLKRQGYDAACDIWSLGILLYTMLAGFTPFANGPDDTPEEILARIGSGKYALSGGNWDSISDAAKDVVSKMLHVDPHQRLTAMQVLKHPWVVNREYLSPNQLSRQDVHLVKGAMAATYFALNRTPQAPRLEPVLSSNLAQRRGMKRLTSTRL

Compound: CN(C)CCCOc1ccc(-c2cc(NCCCn3cccn3)nc(S(C)(=O)=O)n2)cc1
- dTM [1]: 4 K

Compound: O=C(NOC[C@H](O)CO)c1ccc(F)c(F)c1Nc1ccc(I)cc1F
- % of control [2]: 100%

Compound: CN1Cc2nccc(-c3cn(C)nc3-c3ccc(F)cc3)c2C1=O
- % of inhibition [3]: -2%

Compound: Cc1ccc(-c2ccc3c(ccc4sc5c(c43)NC[C@@H](C)NC5=O)n2)cn1
- % of inhibition [4]: 49%

Compound: Cc1cnc(Nc2ccc(F)cc2Cl)nc1-c1c[nH]c(C(=O)N[C@H](CO)c2cccc(Cl)c2)c1
- % of inhibition [5]: 9%
- % of inhibition [6]: 0%

Compound: CN(C)CCOc1ccc(-c2nc(-c3ccncc3)c(-c3ccc4c(c3)CC/C4=N\O)[nH]2)cc1
- % of control [7]: 100%
- % of control [8]: 99%
